Columns and labels:
[1] = tested on: human neurotensin receptor subtype-1 (hNTSR1); test: GPCR signaling assay using membrane-tethered peptide ligands, hNTSR1; format: cell-based; conditions: strain IMFD-72ZsD, pGK421-NTSR1, flow cytometry; for fold increase in fluorescence intensity compared with α-factor: after 24 h cultivation, pH-adjusted SD medium, mean of 10,000 cells, n = 3; for rank order of ZsGreen fluorescence: membrane-tethered peptides, 24 h
Experimental: (§1) The cultured cells were washed and suspended in distilled water. The cell suspensions were observed using a BZ-9000 fluorescence microscope (Keyence, Osaka, Japan). Green fluorescence images were acquired with a 470/40 band-pass filter for excitation and a 535/50 band-pass filter for emission. Digital image intensities of green fluorescence were carried out, from four experiments each, with the ImageJ software (freely downloadable from the ImageJ website, http://rsbweb.nih.gov/ij/) and expressed as Integrated Density (IntDen) or its percent.
(§2) Flow cytometry measurements of green fluorescence followed previous procedures. In brief, GFP was detected using a BD FACSCanto II flow cytometer equipped with a 488-nm blue laser (Becton, Dickinson and Company, Franklin Lakes, NJ, USA); the data were analyzed using BD FACSDiva software (v5.0; Becton, Dickinson and Company). The GFP fluorescence signal was collected through a 530/30 nm band-pass filter and the GFP-A mean of 10,000 cells was defined as ‘green fluorescence intensity’.
GPCR signaling assays using membrane-tethered peptide ligands basically followed a previous procedure with some modifications. In brief, to assay signal activation from human GPCRs, yeast strains harboring the pGK421-based GPCR expression plasmids and pGK426-based peptide display plasmids were grown in SD medium (supplemented as needed) at 30 °C overnight, then the cells then were inoculated into 5 mL of the respective fresh SDM71 medium to give an initial OD600 = 0.1. The cells were incubated at 30 °C on a rotary shaker at 150 rpm, then the yeast cells were observed using a fluorescence microscope, diluted with 1 ml of sheath fluid, and fluorescence was analyzed by flow cytometry.
Data were analyzed using KaleidaGraph4.0. Statistical significance of the differences between more than two groups was calculated by one-way ANOVA, followed by Tukey’s post test. Z’ factor, a commonly used parameter reflecting the robustness and the quality of assays, was determined as follows: Z’ factor = 1 ‒ 3(SDpositive control + SDnegative control)/ (meanpositive control ‒ meannegative control), where “SD” represents standard deviation of multiple replicates of an assay.

[2] = cited from earlier work
From the text: Studies on the structure-activity relationship of neurotensin verified that positive charges at positions 8 and 9 are important but not prerequisite for its bioactivity. There is charge complementarity between NTS8–13 and its binding pocket: the positively- ...

[3] = tested on: human neurotensin receptor subtype-1 (hNTSR1); test: GPCR signaling assay with exogenously added ligand, hNTSR1; format: cell-based; conditions: 4 h; for fold higher fluorescence than in the absence of agonist / fold increase in fluorescence intensity in response to agonist stimulation: pGK421-NTSR1, with vs without 10 μM NTS, 30 °C, pH 7.1 SD medium, flow cytometry, mean of 10,000 cells, n = 3
Experimental: as §1, §2
(§3) GPCR signaling assays with exogenously added ligands basically followed previous procedures. In brief, to assay signal activation from human GPCRs, yeast strains harboring the pGK421-based plasmids were grown in SD medium (supplemented as needed) at 30 °C overnight, then the cells then were inoculated into 5 mL of the respective fresh SD medium to give an initial OD600 = 0.03. The cells were incubated at 30 °C on a rotary shaker at 150 rpm for up to 18 h and harvested, washed, and resuspended in water to give an OD600 = 10. […] The plates were incubated at 30 °C with shaking (150 rpm) for 4 h, then the yeast cells were observed using a fluorescence microscope, diluted with 1 mL of sheath fluid, and fluorescence was analyzed by flow cytometry.

[4] = tested on: human neurotensin receptor subtype-1 (hNTSR1); test: Quantitative digital image analysis of ZsGreen fluorescence (microscopy, ImageJ), hNTSR1; format: cell-based; conditions: strain IMFD-72ZsD, pGK421-NTSR1; NTS at several concentrations, 4 h; 100 cells, n = 4
Experimental: as §1, §3

[5] = tested on: human somatostatin receptor subtype-5 (hSSTR5); test: GPCR signaling assay with exogenously added ligand, hSSTR5 (FIG1-promoter GFP reporter yeast); format: cell-based; conditions: 4 h; for fluorescence microscopy observation: 10 μM SST; for fold increase in fluorescence on agonist addition / fold increase in fluorescence intensity in response to agonist stimulation: pGK421-SSTR5, with vs without 10 μM SST, 30 °C, pH 7.1 SD medium, flow cytometry, mean of 10,000 cells, n = 3
Experimental: as §1, §2, §3

[6] = tested on: human somatostatin receptor subtype-2 (hSSTR2); test: GPCR signaling assay with exogenously added ligand, hSSTR2; format: cell-based; conditions: 4 h; for fold higher fluorescence on agonist addition / fold increase in fluorescence intensity on agonist stimulation: pGK421-SSTR2, with vs without 10 μM SST, 30 °C, pH 7.1 SD medium, flow cytometry, mean of 10,000 cells, n = 3
Experimental: as §1, §2, §3

[7] = strain IMFD-70ZsD (ZsGreen, Gpa1p)
[8] = strain IMFD-72ZsD (ZsGreen, Gi3tp)

KIPYIL [NMN, NMN–Flag–Flo42 in pGK426; membrane-tethered neuromedin N]
fold increase in fluorescence intensity compared with α-factor [1]: > 1.5 fold
rank order of ZsGreen fluorescence [1]: NTS8–13 > NTS > NMN > α-factor

KIPYIL [neuromedin N, neurotensin-like peptide, KIPYIL (cited from literature)]
biological activity [2]: very weak biological activity

RRPYIL [NTS8–13, NTS 8-13 -Flag–Flo42 in pGK426; membrane-tethered NTS8–13]
fold increase in fluorescence intensity compared with α-factor [1]: greater than 35 fold
rank order of ZsGreen fluorescence [1]: NTS8–13 > NTS > NMN > α-factor

RRPYIL [Neurotensin-(8-13), pharmacophore of neurotensin, RRPYIL (cited from literature)]
potency and efficacy versus full-length NTS [2]: higher potency and efficacy than full-length NTS

neurotensin [NTS]
fluorescence microscopy observation ([3]; hNTSR1-expressing IMFD-72ZsD, 10 μM NTS, 40× and 100× objective): clearly exhibited changes in green fluorescence and morphology
fold higher fluorescence than in the absence of agonist ([3]; strain IMFD-70 (EGFP, Gpa1p)): 1.3 fold
fold increase in fluorescence intensity in response to agonist stimulation [3, 7]: 7.9 fold
fold higher fluorescence than in the absence of agonist ([3]; strain IMFD-72 (EGFP, Gi3tp)): 2.3 fold
fold increase in fluorescence intensity in response to agonist stimulation [3, 8]: 45 fold
digital intensity of green fluorescence (IntDen), concentration dependence [4]: varied in a NTS-dependent manner

somatostatin [SST]
fluorescence microscopy observation ([5]; hSSTR5-expressing IMFD-70ZsD and IMFD-72ZsD (ZsGreen), 40× and 100× objective): exhibited changes in green fluorescence and morphology
fluorescence microscopy observation ([5]; hSSTR5-expressing IMFD-70 and IMFD-72 (EGFP)): the fluorescence was too weak to allow observation with a fluorescence microscope
fold increase in fluorescence on agonist addition ([5]; strain IMFD-70 (EGFP, Gpa1p)): 3.9 fold
fold increase in fluorescence intensity in response to agonist stimulation ([5]; strain IMFD-70Zs (single ZsGreen substitution, Gpa1p)): 33 fold
fold increase in fluorescence intensity in response to agonist stimulation ([5]; strain IMFD-70ZsD (double ZsGreen substitution, Gpa1p)): 83 fold
fold increase in fluorescence on agonist addition ([5]; strain IMFD-72 (EGFP, Gi3tp)): 5.6 fold
fold increase in fluorescence intensity in response to agonist stimulation ([5]; strain IMFD-72Zs (single ZsGreen substitution, Gi3tp)): 65 fold
fold increase in fluorescence intensity in response to agonist stimulation ([5]; strain IMFD-72ZsD (double ZsGreen substitution, Gi3tp)): 104 fold
fluorescence microscopy observation ([6]; hSSTR2-expressing IMFD-72ZsD, 10 μM SST, 40× and 100× objective): clearly exhibited changes in green fluorescence and morphology
fold higher fluorescence on agonist addition ([6]; strain IMFD-70 (EGFP, Gpa1p)): 3.0 fold
fold increase in fluorescence intensity on agonist stimulation [6, 7]: 36 fold
fold higher fluorescence on agonist addition ([6]; strain IMFD-72 (EGFP, Gi3tp)): 4.6 fold
fold increase in fluorescence intensity on agonist stimulation [6, 8]: 81 fold
